Experimental data taken from PubChem BioAssay (NCI).
Several values for one entry are separate records, joined by “and”; a condition that tells them apart may be missing. Identical values can stand only once.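 Protocol summary: plate cells (96-well), add compound at 5 concentrations, incubate 48 h, interpolate endpoints linearly. The concentration for 50% growth inhibition is given as GI50. Definition used: TGI = concentration required for complete inhibition of growth.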

How the values were obtained:
Test in all cases: NCI-60 cell line screen, 48 h
[1] = test system: OVCAR-3 ovarian
[2] = test system: A549 NSCLC
[3] = test system: HL-60(TB) leukemia
[4] = test system: COLO 205 colon
[5] = test system: NCI-H23 lung
[6] = test system: SF-268 CNS
[7] = test system: UO-31 renal
[8] = test system: CCRF-CEM leukemia
[9] = test system: SK-OV-3 ovarian
[10] = test system: ACHN renal

Row | SMILES | TGI [1] [µM] | TGI [2] [µM] | TGI [3] [µM] | TGI [4] [µM] | TGI [5] [µM] | TGI [6] [µM] | TGI [7] [µM] | TGI [8] | TGI [9] [µM] | TGI [10] [µM] | GI50 [5] [µM] | GI50 [6] [µM] | GI50 [7] [µM] | GI50 [8] [µM] | GI50 [9] [µM] | GI50 [10] [µM] | GI50 [1] [µM] | GI50 [2] [µM] | GI50 [3] [µM] | GI50 [4] [µM]
1 | N/C(=C\c1ccc(/C=C(\NC(=O)c2ccccc2)c2nc3c([nH]2)C(=O)c2ccccc2C3=O)cc1)c1nc2c([nH]1)C(=O)c1ccccc1C2=O | 57.3 | 36.5 | 38.3 | 29.9 | 32.8 | 30.6 | 17.7 | 57.2 µM | 48.8 | 52.6 |  |  |  |  |  |  |  |  |  | 
2 | COc1ccc2c(c1)C(=O)c1c-2n(CCCN=[N+]=[N-])c(=O)c2cc([N+](=O)[O-])ccc12 |  | > 100 |  | > 100 | 18 |  | 2.22 | 0.0275 µM and 0.0272 µM | 28.1 |  | 0.244 | < 0.001 | < 0.001 | < 0.001 | 7.14 | 0.0443 |  |  |  | 
3 | CCOC(=O)NC(=O)c1cn(CCN(CCO)C(=O)NCCCCCCNC(=O)N(CCO)CCn2cc(C(=O)NC(=O)OCC)c(=O)[nH]c2=O)c(=O)[nH]c1=O | > 100 | > 100 | > 100 | > 100 | > 100 | > 100 | > 100 | > 100 µM |  |  |  |  |  |  |  |  |  |  |  | 
4 | COc1cc2c(c(OC)c1OC)-c1ccc(OC)c(=O)cc1C(NC(=O)CCCCCNc1ccc(N=[N+]=[N-])cc1[N+](=O)[O-])CC2 (configuration not stated) | < 0.0152 | 5.8 | < 0.01 | < 0.01 | > 100 | 10.3 |  |  | 7.17 | 24.4 |  |  |  |  |  |  |  |  |  | 
5 | COc1cc(-c2n/c(=C\c3c(O)[nH]c4ccccc34)cc3c2=Nc2ccccc2-3)ccc1F | 14.5 | 23.5 | > 100 | > 100 | 17.6 | 44.2 | > 100 | > 100 µM | 43.5 | 35.2 | 2.83 | 10.6 | 25.6 | 4.75 | 17.1 | 8.09 | 4.08 | 7.06 | > 100 | 10.9
6 | COc1nc2ccc(Cl)c(C(O)c3ccccc3)c2nc1OC (configuration not stated) | 69.6 | 78.6 | 52.5 | 32.5 | 61.2 | 84.5 | > 100 | 29.5 µM |  | > 100 |  |  |  |  |  |  |  |  |  | 
7 | CCCC[n+]1ccn(-c2nc3ccccc3n2C)c1 | > 100 | > 100 | > 100 |  | > 100 |  | > 100 | > 100 µM | > 100 | > 100 |  |  |  |  |  |  |  |  |  | 
8 | COc1cc(/C=C2\C(=O)Nc3ccc(Cl)cc32)cc(OC)c1OC | > 100 | > 100 | > 100 | > 100 | 39.2 | > 100 | > 100 | > 100 µM | 33.8 | > 100 | 12.9 | 8.99 | 16 | 7.28 | 13.4 | 23.5 | 19.6 | 41.2 | 13.4 | 8.01
9 | N#C[S-].[Ce+3].c1ccc(-c2ccccn2)nc1.c1ccc(-c2ccccn2)nc1.c1ccc(-c2ccccn2)nc1 | > 100 | > 100 |  | > 100 | 97.3 |  | 28.7 |  | 60.7 |  | 26.9 |  | 4.46 |  | 27 |  | 43.1 | 24.8 |  | 33
